The text below walks through data of paper PMC8565742 (PLoS Neglected Tropical Diseases, 2021).

Read-outs that look alike come from different tables or passages of the source.

The target in assay [1] is T1, Sm.TRPMPZQ (Schistosoma mansoni, UniProt A0A5K4F0X5). As to the kind of experiment: cell-based. Here is the method: HEK cells were transfected with cDNA (400μg/ml DNA) encoding Sm.TRPMPZQ using a Maxcyte STX electroporation system and incubated overnight at 37°C. This system is uniquely capabable of large scale transfections providing one batch of cells ready for large scale HTS [30]. Briefly, the HEK cells were resuspended at 10^8/ml in Maxcyte electroporation buffer. Plasmid DNA was added to the cells in buffer to achieve a concentration of 400 μg/ml from a stock of 5mg/ml (in TE buffer). This mixture was loaded into the appropriate cassette, inserted into the machine, and cells electroporated. Cells were then frozen to provide a single supply of transfected cells for all subsequent assays. On the day of the assays, cells were thawed in a 37°C waterbath, and resuspended in DMEM + 10% FBS and counted. The cells were pelleted by centrifugation at 170xg for 5 minutes. The media was aspirated, and the remaining pellet was resuspended in 1x HBSS with 20 mM HEPES and 1% DMSO to achieve 1.33x10^6cells/ml. This cell suspension was then dispensed at 3 μl/well to the 1536 well plates (Greiner Bio One part 789072) at a density of 4,000 cells/well. Measurements of fluorescence intensity (λex = 470 nm, λem = 535 nm) were made using a FLIPR (Molecular Devices FLIPR Tetra). A read of basal fluorescence values was made (5s) prior to addition of compounds or controls (30 nl). In both ‘agonist’ and ‘antagonist mode’, the total assay volume was 6μl (1% DMSO). […] Ligand performance was categorized using an algorithm based on the activity of the entire dataset to define a ‘hit-cutoff’ parameter for both agonist-mode and antagonist-mode screening. […] Titration assays were executed using the same reagents, protocols and detection systems, done as 10-point concentration-response curves, performed in triplicate. Counter-screening was performed using untransfected HEK293 cells for comparison with results testing the same compounds effect on cells expressing Sm.TRPMPZQ, with ATP used as the positive control. For each compound, activity was plotted against compound concentration and data were fitted with a sigmoidal function. […] ChemAxon (https://www.chemaxon.com) academic licensing was provided for the use of Instant JChem (ver. 15.10.12.0) to perform compound mining of the libraries utilized in this effort.

The subject of assay [2] is untransfected HEK293 cells. Nature of the assay: Counterscreen, agonist mode, Ca2+ signal in untransfected HEK cells. It is filed as cell-based. Conditions: for EC50: Homo sapiens, HEK293, unit inferred, read-out: HEK AG Final EC50; for EC50 / HEK AG Averaged Max % Response: counterscreen titration. Here is the method:
HEK cells were transfected with cDNA (400μg/ml DNA) encoding Sm.TRPMPZQ using a Maxcyte STX electroporation system and incubated overnight at 37°C. This system is uniquely capabable of large scale transfections providing one batch of cells ready for large scale HTS [30]. Briefly, the HEK cells were resuspended at 10^8/ml in Maxcyte electroporation buffer. Plasmid DNA was added to the cells in buffer to achieve a concentration of 400 μg/ml from a stock of 5mg/ml (in TE buffer). This mixture was loaded into the appropriate cassette, inserted into the machine, and cells electroporated. Cells were then frozen to provide a single supply of transfected cells for all subsequent assays. On the day of the assays, cells were thawed in a 37°C waterbath, and resuspended in DMEM + 10% FBS and counted. The cells were pelleted by centrifugation at 170xg for 5 minutes. The media was aspirated, and the remaining pellet was resuspended in 1x HBSS with 20 mM HEPES and 1% DMSO to achieve 1.33x10^6cells/ml. This cell suspension was then dispensed at 3 μl/well to the 1536 well plates (Greiner Bio One part 789072) at a density of 4,000 cells/well. Measurements of fluorescence intensity (λex = 470 nm, λem = 535 nm) were made using a FLIPR (Molecular Devices FLIPR Tetra). A read of basal fluorescence values was made (5s) prior to addition of compounds or controls (30 nl). In both ‘agonist’ and ‘antagonist mode’, the total assay volume was 6μl (1% DMSO). […] Ligand performance was categorized using an algorithm based on the activity of the entire dataset to define a ‘hit-cutoff’ parameter for both agonist-mode and antagonist-mode screening. Any compound with greater percent activation than this cutoff was assigned as ‘active’ prior to titration and counter-screening. Titration assays were executed using the same reagents, protocols and detection systems, done as 10-point concentration-response curves, performed in triplicate. Counter-screening was performed using untransfected HEK293 cells for comparison with results testing the same compounds effect on cells expressing Sm.TRPMPZQ, with ATP used as the positive control. For each compound, activity was plotted against compound concentration and data were fitted with a sigmoidal function. In order to be considered a hit at this stage a compound must achieve a EC50<5 μM for agonists and IC50 <5 μM for antagonists. All compounds selected for titration were subjected to LC-MS analysis to confirm mass and sample purity. ChemAxon (https://www.chemaxon.com) academic licensing was provided for the use of Instant JChem (ver. 15.10.12.0) to perform compound mining of the libraries utilized in this effort.
For orientation: The purpose of a counterscreen is to sort out artefacts and off-target activity.

The target in assay [3] is T1, Sm.TRPMPZQ. As to the kind of experiment: cell-based. Particulars: for Emax: HEK293. Here is the method: HEK cells were transfected with cDNA (400μg/ml DNA) encoding Sm.TRPMPZQ using a Maxcyte STX electroporation system and incubated overnight at 37°C. This system is uniquely capabable of large scale transfections providing one batch of cells ready for large scale HTS [30]. Briefly, the HEK cells were resuspended at 10^8/ml in Maxcyte electroporation buffer. Plasmid DNA was added to the cells in buffer to achieve a concentration of 400 μg/ml from a stock of 5mg/ml (in TE buffer). This mixture was loaded into the appropriate cassette, inserted into the machine, and cells electroporated. Cells were then frozen to provide a single supply of transfected cells for all subsequent assays. On the day of the assays, cells were thawed in a 37°C waterbath, and resuspended in DMEM + 10% FBS and counted. The cells were pelleted by centrifugation at 170xg for 5 minutes. The media was aspirated, and the remaining pellet was resuspended in 1x HBSS with 20 mM HEPES and 1% DMSO to achieve 1.33x10^6cells/ml. […] A read of basal fluorescence values was made (5s) prior to addition of compounds or controls (30 nl). In both ‘agonist’ and ‘antagonist mode’, the total assay volume was 6μl (1% DMSO). […] Ligand performance was categorized using an algorithm based on the activity of the entire dataset to define a ‘hit-cutoff’ parameter for both agonist-mode and antagonist-mode screening. […] Titration assays were executed using the same reagents, protocols and detection systems, done as 10-point concentration-response curves, performed in triplicate. Counter-screening was performed using untransfected HEK293 cells for comparison with results testing the same compounds effect on cells expressing Sm.TRPMPZQ, with ATP used as the positive control. For each compound, activity was plotted against compound concentration and data were fitted with a sigmoidal function.

[4] abbreviates: S2 Table, titration, listed as SR-01000003100-3.
Setting [5] is: S2 Table, titration, listed as SR-01000003100-19.

T1 sequence (A0A5K4F0X5 entry or part of it): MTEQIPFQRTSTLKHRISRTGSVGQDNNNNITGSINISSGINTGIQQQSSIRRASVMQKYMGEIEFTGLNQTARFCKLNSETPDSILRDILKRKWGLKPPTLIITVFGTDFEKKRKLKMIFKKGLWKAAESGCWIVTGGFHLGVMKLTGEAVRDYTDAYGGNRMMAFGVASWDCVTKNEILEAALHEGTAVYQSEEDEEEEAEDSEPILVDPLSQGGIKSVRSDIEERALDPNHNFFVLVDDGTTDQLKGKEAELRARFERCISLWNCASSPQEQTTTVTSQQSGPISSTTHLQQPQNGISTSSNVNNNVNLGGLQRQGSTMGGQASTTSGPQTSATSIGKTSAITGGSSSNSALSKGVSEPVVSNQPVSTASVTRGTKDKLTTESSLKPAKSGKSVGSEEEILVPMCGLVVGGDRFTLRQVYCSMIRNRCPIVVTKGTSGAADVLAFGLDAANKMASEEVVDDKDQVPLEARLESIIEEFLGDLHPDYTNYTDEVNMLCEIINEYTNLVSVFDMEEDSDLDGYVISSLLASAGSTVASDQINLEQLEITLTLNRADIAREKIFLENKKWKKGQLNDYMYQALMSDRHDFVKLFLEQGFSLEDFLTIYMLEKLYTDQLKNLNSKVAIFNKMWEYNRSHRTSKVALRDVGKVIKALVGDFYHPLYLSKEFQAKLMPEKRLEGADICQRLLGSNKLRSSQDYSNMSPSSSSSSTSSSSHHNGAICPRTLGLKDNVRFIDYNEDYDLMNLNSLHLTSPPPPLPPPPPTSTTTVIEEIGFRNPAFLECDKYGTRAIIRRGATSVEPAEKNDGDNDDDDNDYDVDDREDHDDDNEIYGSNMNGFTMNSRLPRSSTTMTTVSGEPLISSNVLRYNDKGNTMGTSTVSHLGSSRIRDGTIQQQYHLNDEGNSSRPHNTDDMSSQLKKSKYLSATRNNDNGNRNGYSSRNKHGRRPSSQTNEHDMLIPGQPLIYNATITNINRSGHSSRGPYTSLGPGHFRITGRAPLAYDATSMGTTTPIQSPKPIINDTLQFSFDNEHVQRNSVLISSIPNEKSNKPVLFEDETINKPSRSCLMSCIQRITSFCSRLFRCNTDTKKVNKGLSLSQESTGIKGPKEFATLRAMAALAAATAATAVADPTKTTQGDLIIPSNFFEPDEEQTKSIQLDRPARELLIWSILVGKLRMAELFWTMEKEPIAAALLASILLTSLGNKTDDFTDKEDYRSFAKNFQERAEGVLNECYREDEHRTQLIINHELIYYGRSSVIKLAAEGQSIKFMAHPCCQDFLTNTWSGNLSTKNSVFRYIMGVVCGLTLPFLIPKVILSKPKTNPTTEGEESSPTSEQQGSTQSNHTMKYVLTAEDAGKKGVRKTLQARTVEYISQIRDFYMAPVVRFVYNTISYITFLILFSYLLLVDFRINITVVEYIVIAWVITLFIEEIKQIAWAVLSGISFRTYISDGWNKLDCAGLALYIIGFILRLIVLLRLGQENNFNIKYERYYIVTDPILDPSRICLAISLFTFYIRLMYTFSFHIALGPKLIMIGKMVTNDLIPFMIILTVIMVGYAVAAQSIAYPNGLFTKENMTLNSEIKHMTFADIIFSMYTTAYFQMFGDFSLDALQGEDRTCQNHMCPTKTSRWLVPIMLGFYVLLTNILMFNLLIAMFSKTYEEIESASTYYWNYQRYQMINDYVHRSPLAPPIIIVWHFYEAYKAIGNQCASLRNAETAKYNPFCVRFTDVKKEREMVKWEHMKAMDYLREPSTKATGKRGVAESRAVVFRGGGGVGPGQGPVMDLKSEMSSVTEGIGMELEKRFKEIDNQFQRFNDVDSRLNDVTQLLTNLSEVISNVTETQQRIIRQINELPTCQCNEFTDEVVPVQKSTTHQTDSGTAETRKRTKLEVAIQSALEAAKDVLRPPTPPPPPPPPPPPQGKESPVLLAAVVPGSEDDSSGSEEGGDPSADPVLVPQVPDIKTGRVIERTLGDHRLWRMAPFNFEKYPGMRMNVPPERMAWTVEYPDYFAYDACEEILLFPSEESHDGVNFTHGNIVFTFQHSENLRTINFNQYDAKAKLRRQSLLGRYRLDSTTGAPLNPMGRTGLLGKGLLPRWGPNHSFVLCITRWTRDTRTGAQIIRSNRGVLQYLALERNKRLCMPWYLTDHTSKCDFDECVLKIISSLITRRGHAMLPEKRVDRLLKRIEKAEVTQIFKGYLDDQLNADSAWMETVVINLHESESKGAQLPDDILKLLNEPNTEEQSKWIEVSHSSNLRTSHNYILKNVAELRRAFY

As to `COc1ccc(-c2nnc3ccc(-c4cccc(C(C)C)c4)cn23)cc1OC` [AG1, 3-(3,4-Dimethoxyphenyl)-6-(3-propan-2-ylphenyl)-[1,2,4]triazolo[4,3-a]pyridine], the Emax at Sm.TRPMPZQ [1] (HEK293, S2 Table, titration, read-out: Sm.TRPMPZQ AG Averaged Max % Response) turned out to be 97.5%; on Sm.TRPMPZQ [3] (S2 Table, antagonist mode titration, read-out: Sm.TRPMPZQ Averaged Max % Response), 109%. Moreover, the activation at 5 µM at Sm.TRPMPZQ [1] (HEK293, read-out: Bmax, activation in primary screen) amounted to 93.9 ± 5.6%. In addition, the EC50 was 1560 nM on Sm.TRPMPZQ [1] (S2 Table, 10-point titration in triplicate, unit inferred, read-out: Sm.TRPMPZQ AG Final EC50); 1600 ± 300 nM on Sm.TRPMPZQ [1] (concentration-response of library sample, Ca2+ flux, read-out: EC50); 9200 nM at Sm.TRPMPZQ [1] (re-sourced, independently procured sample, read-out: EC50); more than 12400 nM in assay [2] (S2 Table); 571 nM on Sm.TRPMPZQ [3] (S2 Table, 10-point titration in triplicate, unit inferred, read-out: Sm.TRPMPZQ ANT Final EC50). For the same molecule, the “Sm.TRPMPZQ AG Hill Slope” value on Sm.TRPMPZQ [1] (S2 Table, titration) is 1.659. The agonist efficacy result on Sm.TRPMPZQ [1] (concentration-response curve analysis) is listed as “full agonist”. Also, in assay [2] (S2 Table), the “HEK AG Averaged Max % Response” value came to 8.295%. Also, the “activity on counter-screening in naïve HEK cells” value in assay [2] (concentration-response) was “no activity”. For the same molecule, on Sm.TRPMPZQ [3] (S2 Table, titration), the “Sm.TRPMPZQ ANT Hill Slope” value is reported as 2.322.

Turning to `Cc1onc(-c2ccccc2)c1C(=O)N1CCN(C2c3ccccc3-c3ccccc32)CC1` [ANT1, 1-(9H-fluoren-9-yl)-4-(5-methyl-3-phenyl-1,2-oxazole-4-carbonyl)piperazine], the Emax was 11.6% at Sm.TRPMPZQ [1] (HEK293, S3 Table, titration, read-out: Sm.TRPMPZQ AG Averaged Max % Response) and 105% on Sm.TRPMPZQ [3] (S3 Table, titration, read-out: Sm.TRPMPZQ ANT Averaged Max % Response). Besides, the EC50 at Sm.TRPMPZQ [1] (S3 Table, 10-point titration in triplicate, unit inferred, read-out: Sm.TRPMPZQ AG Final EC50) was more than 12400 nM; in assay [2] (S3 Table), more than 12400 nM. In assay [2] (S3 Table), the “HEK AG Averaged Max % Response” value worked out at 25.3604%. Moreover, the IC50 at Sm.TRPMPZQ [3] (read-out: IC50, block of PZQ-evoked Ca2+ signals) was 1300 ± 300 nM.

Turning to `O=C(C1CCCCC1)N1CC(=O)N2CCc3ccccc3C2C1` (stereo not shown) [PZQ, praziquantel, reference compound], the Emax on Sm.TRPMPZQ [1] (HEK293, read-out: Sm.TRPMPZQ AG Averaged Max % Response, S2 Table, titration) stood at 80.3%. In addition, the figures for the “Sm.TRPMPZQ AG Hill Slope” value at Sm.TRPMPZQ [1] (setting [4]) and on Sm.TRPMPZQ [1] (setting [5]) were 1.753 and 1.657, respectively. For the same molecule, the “Sm.TRPMPZQ AG Averaged Max % Response” value at Sm.TRPMPZQ [1] (setting [5]) was 90.5499%. The EC50 in assay [2] (S2 Table) is more than 12400 nM. Further, the “HEK AG Averaged Max % Response” value in assay [2] (S2 Table, listed as SR-01000003100-3) is recorded as 2.271%; in assay [2] (S2 Table, listed as SR-01000003100-19), 17.5496%. In assay [2] (≤30 μM, untransfected HEK293 cells), the “change in basal fluorescence” value was “failed to elicit any change in basal fluorescence”. Moreover, the “Sm.TRPMPZQ ANT Hill Slope” value on Sm.TRPMPZQ [3] (setting [4]) is 1.74.

By EC50 is commonly meant the concentration that produces a half-maximal response. As usually defined, the IC50 is the point on the concentration scale where inhibition reaches its midpoint.
